SMILES strings stand for the structures.

One may read the Km as the substrate concentration at which the rate is half of its maximum.

In experiment [1] the test system is nitrilase, a preferred enzyme on which initial experiments were conducted (particularly preferred enzyme: Rhodococcus rhodochrous NCIMB 40757). Nature of the experiment: Km, Ki of preferred nitrilase in whole cell form (Michaelis-Menten kinetics). Type of experiment: biochemical. As for the experimental part:
The enzyme must have Km for (meth) acrylonitrile, that is whichever of acrylonitrile and (meth) acrylonitrile is being converted, below 500 μm and Ki for ammonium acrylate or ammonium (meth) acrylate, whichever is being produced, above 100,000 μM. In this specification Km and Ki are measured under conditions in which the enzyme obeys Michaelis-Menten kinetics, in particular at pH 7. A preferred measurement technique uses enzyme in whole cell form in 50 mM sodium phosphate buffer at pH 7 and 30° C. and using concentrations of acrylonitrile from 0.01 to 0.5 mM (for Km) and using 1.2 M ammonium acrylate and 0.079 to 0.554 mM acrylonitrile (for Ki).

Experiment [2] deals with R rhodochrous K22 nitrilase. As to conditions: literature value; read-out: Km for acrylonitrile; cited from earlier work.
The subject of experiment [3] is nitrilase enzyme discussed in Biotech and Appl Biochem 11, 581 to 601 (1989). Conditions: literature value; read-out: Km for acrylonitrile; cited from earlier work.

Take `C=CC#N` [acrylonitrile]: the Km was 30.6 µM in experiment [1] (whole cell form, preferred technique: 50 mM sodium phosphate buffer, pH 7, 30° C., acrylonitrile 0.01 to 0.5 mM); 1140 µM in experiment [2]; 17000 µM in experiment [3].
In the case of `C=CC(=O)O` [ammonium acrylate], the “ratio Ki/Km” value in experiment [1] (Ki for ammonium acrylate / Km for acrylonitrile) is on record as “greater than 10,000”.

(Values after patent US6361981B1, “Production of ammonium acrylate” (Ciba Specialty Chemicals Water Treatments Limited, priority 1995, dated 2002).)
